Patent publication US20250289837A1, “MITOCHONDRIOTROPIC HETEROARYL BENZAMIDE POTASSIUM CHANNEL KV1.3 INHIBITORS” (UNIVERZA V LJUBLJANI, priority 2022, published 2025)

Experiments:
[1] = tested on: HEK293 and K562 cells, and T and B cells from healthy subjects; conditions: cited from earlier work
[2] = tested on: KV1.1, KV1.2, KV1.5 and KV3.1; conditions: cited from earlier work
[3] = tested on: human SAOS2, mouse B16F10 melanoma, and human B-CLL; conditions: cited from earlier work
[4] = tested on: orthotopic melanoma B16F10; conditions: cited from earlier work; for B16F10 tumor volume: orthotopic mouse B16F10 melanoma model
[5] = tested on: KV1.3; conditions: cited from earlier work
[6] = tested on: pancreatic ductal adenocarcinoma (PDAC) cells; conditions: cited from earlier work
[7] = tested on: orthotopic PDAC xenograft; conditions: SCID beige mouse; cited from earlier work
[8] = tested on: Jurkat leukemia T cells, mouse melanoma B16F10 cells, human PDAC cells (Bx-PC3, PANC-1, As-PC1, CAPAN-1); conditions: B16F10, Bx-PC3, PANC-1, As-PC1, CAPAN-1 cells; cited from earlier work
[9] = tested on: cancer cells; conditions: in vitro and in vivo studies; cited from earlier work
[10] = tested on: human pancreatic Colo357 tumors; conditions: mice; cited from earlier work
[11] = cited from earlier work
[12] = tested on: pancreatic cancer cell line Colo 357; test: Apoptosis in 2D culture, caspase 3/7 activity reporter; assay type: cell-based, human; conditions: 24 h incubation, FIG. 2; for Apoptosis induction (caspases 3/7 activation): already at 5 μM
Procedure: FIG. 2. Levels of apoptosis observed in the presence of the indicated compounds after 24 hours incubation. Apoptosis was measured as activation of the executor caspases 3/7, using a fluorescent indicator. The values were normalized against the apoptosis level observed in the presence of the solvent (DMSO). The symbols indicate biological replicates (with three technical replicates each).
(§1) To test the activity of the compounds on biological systems, we chose the pancreatic cancer cell line Colo 357, which expresses Kv1.3 and is sensitive to cell-permeant Kv1.3 inhibitors (Zaccagnino et al., Oncotarget 8, 38276-38293, 2017). Growth, cell viability and apoptosis were all determined by high content imaging in a Incucyte (Sartorius) live cell imaging device. Images were taken every hour for several days after addition of the compounds dissolved in DMSO (time 0) and the corresponding indicators, CytotoxGreen or CytotoxRed for cytotoxicity and the green Caspase 3/7 activity reporter for apoptosis.
The toxic effect of both compounds was induced through apoptosis, as expected from mitoKv1.3 inhibitors Urbani, A., et al., Front Cell Dev Biol 8, 620081, 2021). FIG. 2 represents apoptosis induction after 24 h incubation in the presence of compound 2 and 8 at the indicated concentrations.

[13] = tested on: Colo 357 tumor spheroids; test: Cytotoxicity on tumor spheroids (3-D cultures), Cytotox green; assay type: cell-based, human; conditions: concentrations as low as 5 μM, 48 h treatment, FIG. 3
Procedure: FIG. 3. Cytotoxicity of the indicated compounds on tumor spheroids. Fluorescence of the dead-cell marker Cytotox green was monitored over time. In the Figure, fluorescence values after 48 h in the presence of the indicated concentration of the compound are reported normalized to the value obtained in the presence of DMSO. The symbols indicate biological replicates (with three technical replicates each).
as §1
To obtain information on the effect of the compounds in a model more similar to the situation in vivo, the effects of 2 and 8 were also studied in tumor spheroids. […] Cytotoxicity was determined as in the conventional 2D cultures but after 48 h treatment instead of 24 h, because the effects needed longer time to develop.

[14] = tested on: pancreatic cancer cell line Colo 357; test: Cytotoxicity in conventional 2D cultures, Cytotox green, Incucyte live cell imaging; assay type: cell-based; conditions: 24 hours of treatment, FIG. 1
Procedure: FIG. 1. Cytotoxicity of the indicated compounds. Cells plated on 96-well plates were incubated in the presence of 50 μM of the indicated compounds and fluorescence of the dead-cell marker Cytotox green was monitored over time. In the Figure, fluorescence values after 24 h are reported normalized to the value obtained in the presence of DMSO. […] The symbols indicate biological replicates (with three technical replicates each).
as §1
The first screening for cytotoxicity was performed on conventional 2D cultures (FIG. 1).

[15] = molecular target: KV1.5 (Homo sapiens, UniProt P22460); conditions: cited from earlier work
[16] = tested on: Colo 357 tumor spheroids; test: Apoptosis in tumor spheroids (3D culture), caspase 3/7 reporter; assay type: cell-based, human; conditions: 25 μM, FIG. 6
Procedure: FIG. 4. Levels of apoptosis observed in the presence of the indicated compounds during 48 h of treatment. Images were acquired every hour. Apoptosis was measured as activation of the executor caspases 3/7, using a fluorescent indicator. Mean±SEM, three replicates.
FIG. 5. Levels of apoptosis observed in the presence of the indicated compounds over time at two different concentrations (the curves for control and 5 μM are the same as in FIG. 4). Apoptosis was measured as activation of the executor caspases 3/7, using a fluorescent indicator. The open symbols in orange represent 5 μM, solid symbols indicate 25 μM.
FIG. 6. Comparison of the time course of the induction of apoptosis (orange) and of cell death (blue) in the presence of 25 μM compound 8. […]
To test the activity of the compounds on biological systems, we chose the pancreatic cancer cell line Colo 357, which expresses Kv1.3 and is sensitive to cell-permeant Kv1.3 inhibitors (Zaccagnino et al., Oncotarget 8, 38276-38293, 2017). Growth, cell viability and apoptosis were all determined by high content imaging in a Incucyte (Sartorius) live cell imaging device. […]
Cell death in 3D culture was also attributable to induction of apoptosis. […] The fluorescence of the caspase 3/7 reporter was detectable soon after addition of the treatment and was markedly more intense than the values measured in the control treatment (DMSO).

Compound: CC(C)N=c1cc2n(-c3ccc(Cl)cc3)c3ccccc3nc-2cc1Nc1ccc(Cl)cc1 [clofazimine, N,5-bis(4-chlorophenyl)-3-propan-2-yliminophenazin-2-amine]
- Effects on healthy cells [1]: did not show similar effects
- Selectivity over KV1.1, KV1.2, KV1.5 and KV3.1 [2]: tenfold
- Apoptosis in cancer cells [3]: induced apoptosis
- Reduction of tumor size ([4]; orthotopic melanoma B16F10 line, mouse): 90%
- IC50 [5]: 300 nM
- Apoptosis in PDAC cells [6]: induced apoptosis
- Primary tumor weight [7]: significantly reduced

Compound: O=C(NCCC[P+](c1ccccc1)(c1ccccc1)c1ccccc1)Oc1ccc(OCCCCOc2c3ccoc3cc3oc(=O)ccc23)cc1.[I-] [PCARBTP, (3-(((4-(4-((7-oxo-7H-furo[3,2-g]chromen-4-yl)oxy)butoxy)phenoxy)carbonyl)amino)propyl)triphenylphosphonium iodide]
- Cell death [8]: induced cell death
- Effectiveness compared with the parent PAP-1 [9]: much more effective than the parent PAP-1
- Colo357 tumors [10]: significant reductions
- B16F10 tumor volume [4]: greatly reduce
- Hydrolysis in culture medium ([11]; Dulbecco's modified Eagle medium): slow hydrolysis
- Hydrolysis in mouse blood ([11]; physiological conditions, mouse blood): hydrolyzed to PAPOH

Compound: COc1ccccc1C(=O)NC[C@]1(c2ccsc2)CC[C@H](OC(=O)NCCC[P+](c2ccccc2)(c2ccccc2)c2ccccc2)CC1.[I-] [Example 2, (3-(((((1S,4S)-4-((2-Methoxybenzamido)methyl)-4-(thiophen-3-yl)cyclohexyl)oxy)carbonyl)amino)propyl)triphenylphosphonium iodide]
- Dose dependence of the intensity of apoptosis induction [12]: increased in a dose-dependent manner
- Apoptosis induction (caspases 3/7 activation) [12]: strong increase in apoptotic cells
- Cytotoxicity in tumor spheroids [13]: significant levels of cytotoxicity
- Cell death (cytotoxicity screening) [14]: most intense effect

Compound: O=C(OCCC[P+](c1ccccc1)(c1ccccc1)c1ccccc1)Oc1ccc(OCCCCOc2c3ccoc3cc3oc(=O)ccc23)cc1.[I-] [PCTP, (3-(((4-(4-((7-oxo-7H-furo[3,2-g]chromen-4-yl)oxy)butoxy)phenoxy)carbonyl)oxy)propyl)triphenylphosphonium iodide]
- Cell death [8]: induced cell death
- Effectiveness compared with the parent PAP-1 [9]: much more effective than the parent PAP-1

Compound: O=c1ccc2c(OCCCCOc3ccccc3)c3ccoc3cc2o1 [PAP-1, 4-(4-phenoxybutoxy)-7H-furo[3,2-g]chromen-7-one]
- Effects on healthy cells [1]: did not show similar effects
- Apoptosis in cancer cells [3]: induced apoptosis

Compound: O=c1ccc2c(OCCCCOc3ccc(CCC[P+](c4ccccc4)(c4ccccc4)c4ccccc4)cc3)c3ccoc3cc2o1.[I-] [PAPTP, (3-(4-(4-((7-oxo-7H-furo[3,2-g]chromen-4-yl)oxy)butoxy)phenyl)propyl)triphenylphosphonium iodide]
- Cell death [8]: induced cell death
- Effectiveness compared with the parent PAP-1 [9]: much more effective than the parent PAP-1
- Colo357 tumors [10]: significant reductions
- Tumor volume reduction ([4]; co-applied with cisplatin): more than 90%
- B16F10 tumor volume [4]: greatly reduce

Compound: O=c1ccc2c(OCCCCc3ccccc3)c3ccoc3cc2o1 [Psora-4, 4-(4-Phenylbutoxy)-7H-furo[3,2-g][1]benzopyran-7-one]
- Effects on healthy cells [1]: did not show similar effects
- Apoptosis in cancer cells [3]: induced apoptosis

Compound: COc1ccccc1C(=O)NCC1(c2ccsc2)CCC(OC(=O)NCCCC[P+](c2ccccc2)(c2ccccc2)c2ccccc2)CC1.[I-] [Example 8, (4-(((((1S,4S)-4-((2-Methoxybenzamido)methyl)-4-(thiophen-3-yl)cyclohexyl)oxy)carbonyl)amino)butyl)triphenylphosphonium iodide]
- Dose dependence of the intensity of apoptosis induction [12]: increased in a dose-dependent manner
- Apoptosis induction (caspases 3/7 activation) [12]: strong increase in apoptotic cells
- Cytotoxicity in tumor spheroids [13]: significant levels of cytotoxicity
- Cell death (cytotoxicity screening) [14]: most intense effect
- Time course of apoptosis compared with cytotoxicity in spheroids [16]: initiation of the decline in apoptosis signal corresponds to the start of the increase in the number of dead cells
